Assay [1] has as its target T1, wild type human RORγt ligand binding domain (RORyt LBD) (Homo sapiens, UniProt P51449).
T1 construct: His-tag (N); TurboTEV protease cleavage site (ENLYFQG) (N); made in house; host or cells: E. coli (pHIS1, modified pET vector)
T1 sequence (P51449 258-518): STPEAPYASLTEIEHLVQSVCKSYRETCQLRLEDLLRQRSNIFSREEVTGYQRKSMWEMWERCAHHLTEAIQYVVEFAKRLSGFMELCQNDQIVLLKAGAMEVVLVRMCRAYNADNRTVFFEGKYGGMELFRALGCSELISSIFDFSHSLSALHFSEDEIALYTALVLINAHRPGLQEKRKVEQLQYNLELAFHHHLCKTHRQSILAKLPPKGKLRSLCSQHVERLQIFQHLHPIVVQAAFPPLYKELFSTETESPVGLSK
The assay can be described thus: RORγt ThermoFluor assay (thermal shift, binding affinity KD). A general note: In DSF a fluorescence change marks the thermal transition of the protein.

In assay [2] the target is T2, wild type human RORγt LBD (Homo sapiens, UniProt P51449).
T2 construct: expressed in transfected cells; host or cells: HEK293T
T2 sequence (P51449 258-518): T1 sequence (P51449 258-518)
The experiment in a line: RORγt (LBD) Reporter Assay (GAL4-luciferase, HEK293T cells). The following applies: for IC50: HEK293T cells, value after the comma with ∼, > or < could not be included in the average; for inhibition at 6 µM: HEK-293T, read-out: RORγt (LBD) Reporter Assay, % inhibition @ 6 µM, 6 µM compound concentration; for RORγt (LBD) Reporter Assay, % inhibition @ 6 µM: 6 µM compound concentration. The class given is cell-based.

Experimental findings from EP3057951B1, “METHYLENE LINKED QUINOLINYL MODULATORS OF ROR-GAMMA-T” (Janssen Pharmaceutica NV, priority 2013, dated 2015) are described below.

A word on the Kd: it is the equilibrium constant for the complex coming apart. As usually defined, the IC50 is the midpoint of a concentration-inhibition curve.

With `CC(=O)N1CCC(C(O)(c2cc(C)c3nc(C#N)c(Cc4ccc(-n5cccn5)cc4)c(C#N)c3c2)c2cncn2C)CC1` (single isomer, unassigned) [Example 81b, 3-(4-(1H-Pyrazol-1-yl)benzyl)-6-((1-acetylpiperidin-4-yl)(hydroxy)(1-methyl-1H-imidazol-5-yl)methyl)-8-methylquinoline-2,4-dicarbonitrile], the Kd in assay [1] was determined as 36 nM. In addition, in assay [2], half-maximal inhibition (IC50) required 310 nM and the inhibition at 6 µM was found to be 97%.

Consider `CC(=O)N1CCC(C(O)(c2cc(C)c3nc(C#N)c(Cc4ccc(-n5cccn5)cc4)c(C#N)c3c2)c2cncn2C)CC1` (single isomer, unassigned) [Example 81c, 3-(4-(1H-Pyrazol-1-yl)benzyl)-6-((1-acetylpiperidin-4-yl)(hydroxy)(1-methyl-1H-imidazol-5-yl)methyl)-8-methylquinoline-2,4-dicarbonitrile], for which, in assay [1], the Kd turned out to be 49 nM. Also, in assay [2], the “RORγt (LBD) Reporter Assay, % inhibition @ 6 µM” value (shortened to “RORγt … % inhibition @ 6 µM”) is listed as 97% and the midpoint of inhibition, the IC50, lay at 560 nM.

As to `Cc1cc(C(O)(c2ccnc(C(F)(F)F)c2)c2cncn2C)cc2c(C#N)c(Cc3ccc(-n4cccn4)cc3)c(C#N)nc12` (single isomer, unassigned) [Example 83b, 3-(4-(1H-Pyrazol-1-yl)benzyl)-6-(hydroxy(1-methyl-1H-imidazol-5-yl)(2-(trifluoromethyl)pyridin-4-yl)methyl)-8-methylquinoline-2,4-dicarbonitrile], the Kd in assay [1] was found to be 0.67 nM. In assay [2], the IC50 amounted to 13 nM and the inhibition at 6 µM is 104%.

Regarding `Cc1cc(C(O)(c2ccnc(C(F)(F)F)c2)c2cncn2C)cc2c(C#N)c(Cc3ccc(-n4cccn4)cc3)c(C#N)nc12` (single isomer, unassigned) [Example 83c, 3-(4-(1H-Pyrazol-1-yl)benzyl)-6-(hydroxy(1-methyl-1H-imidazol-5-yl)(2-(trifluoromethyl)pyridin-4-yl)methyl)-8-methylquinoline-2,4-dicarbonitrile], in assay [1], the Kd was found to be 450 nM. In addition, in assay [2] (6 µM), the “RORγt … % inhibition @ 6 µM” value was 100%. This molecule also showed an IC50 in assay [2] of 1500 nM.

For the molecule `COc1nc2ccc(C(O)(c3cc(C)nc(C)c3)c3cnnn3C)cc2c(Cl)c1Cc1ccc(C(F)(F)F)cc1` (single isomer, unassigned) [Example 84b, (4-Chloro-2-methoxy-3-(4-(trifluoromethyl)benzyl)quinolin-6-yl)(2,6-dimethylpyridin-4-yl)(1-methyl-1H-1,2,3-triazol-5-yl)methanol], the Kd in assay [1] came out at 180 nM. Further, in assay [2], the IC50 was 210 nM and the inhibition at 6 µM worked out at 103%.

As for `COc1nc2ccc(C(O)(c3cc(C)nc(C)c3)c3cnnn3C)cc2c(Cl)c1Cc1ccc(C(F)(F)F)cc1` (single isomer, unassigned) [Example 84c, (4-Chloro-2-methoxy-3-(4-(trifluoromethyl)benzyl)quinolin-6-yl)(2,6-dimethylpyridin-4-yl)(1-methyl-1H-1,2,3-triazol-5-yl)methanol], the Kd in assay [1] is 0.003 nM. Besides, the “RORγt … % inhibition @ 6 µM” value in assay [2] (6 µM) is on record as 100%. Also, inhibition in assay [2] was half-maximal at 6 nM (IC50).

Turning to `COc1nc2ccc(C(O)(c3cnnn3C)C3CCOCC3)cc2c(Cl)c1Cc1ccc(C(F)(F)F)cc1` (single isomer, unassigned) [Example 85b, (4-Chloro-2-methoxy-3-(4-(trifluoromethyl)benzyl)quinolin-6-yl)(1-methyl-1H-1,2,3-triazol-5-yl)(tetrahydro-2H-pyran-4-yl)methanol], the Kd in assay [1] turned out to be 0.31 nM. Besides, in assay [2], the IC50 is 1.3 nM and the inhibition at 6 µM is 99%.

Take `COc1nc2ccc(C(O)(c3cnnn3C)C3CCOCC3)cc2c(Cl)c1Cc1ccc(C(F)(F)F)cc1` (single isomer, unassigned) [Example 85c, (4-Chloro-2-methoxy-3-(4-(trifluoromethyl)benzyl)quinolin-6-yl)(1-methyl-1H-1,2,3-triazol-5-yl)(tetrahydro-2H-pyran-4-yl)methanol]: the Kd in assay [1] stood at 2.8 nM. Further, in assay [2] (6 µM), the “RORγt … % inhibition @ 6 µM” value is recorded as 100%. The molecule also registered an IC50 in assay [2] of 17 nM.

As for `COc1nc2ccc(C(O)(c3ccc(C)nc3C)C3CN(C(C)=O)C3)cc2c(Cl)c1Cc1ccc(C(F)(F)F)cc1` (single isomer, unassigned) [Example 87b, 1-(3-((4-Chloro-2-methoxy-3-(4-(trifluoromethyl)benzyl)quinolin-6-yl)(2,6-dimethylpyridin-3-yl)(hydroxy)methyl)azetidin-1-yl)ethanone], the Kd in assay [1] amounted to 0.73 nM. In addition, in assay [2], it took 13 nM to reach half-maximal inhibition (IC50) and the inhibition at 6 µM turned out to be 100%.

In the case of `COc1nc2ccc(C(O)(c3ccc(C)nc3C)C3CN(C(C)=O)C3)cc2c(Cl)c1Cc1ccc(C(F)(F)F)cc1` (single isomer, unassigned) [Example 87c, 1-(3-((4-Chloro-2-methoxy-3-(4-(trifluoromethyl)benzyl)quinolin-6-yl)(2,6-dimethylpyridin-3-yl)(hydroxy)methyl)azetidin-1-yl)ethanone], in assay [1], the Kd was found to be 3 nM. The “RORγt … % inhibition @ 6 µM” value in assay [2] (6 µM) turned out to be 97%. For the same molecule, in assay [2], the IC50 worked out at 15 nM.

As for `COc1nc2ccc(C(O)(c3ccc(C)nc3C)c3cncn3C)cc2c(Cl)c1Cc1ccc(C(F)(F)F)cc1` (single isomer, unassigned) [Example 88b, (4-Chloro-2-methoxy-3-(4-(trifluoromethyl)benzyl)quinolin-6-yl)(2,6-dimethylpyridin-3-yl)(1-methyl-1H-imidazol-5-yl)methanol], in assay [1], the Kd is 480 nM. In assay [2], half-maximal inhibition (IC50) required 740 nM and the inhibition at 6 µM came out at 95%.

With `COc1nc2ccc(C(O)(c3ccc(C)nc3C)c3cncn3C)cc2c(Cl)c1Cc1ccc(C(F)(F)F)cc1` (single isomer, unassigned) [Example 88c, (4-Chloro-2-methoxy-3-(4-(trifluoromethyl)benzyl)quinolin-6-yl)(2,6-dimethylpyridin-3-yl)(1-methyl-1H-imidazol-5-yl)methanol], in assay [1], the Kd was 0.08 nM. Also, in assay [2] (6 µM), the “RORγt … % inhibition @ 6 µM” value is listed as 98%. In assay [2], this molecule yielded an IC50 of 10 nM.

Consider `COc1nc2ccc(C(O)(c3cncn3C)c3cnnn3C)cc2c(Cl)c1Cc1ccc(C(F)(F)F)cc1` (single isomer, unassigned) [Example 89b, (4-Chloro-2-methoxy-3-(4-(trifluoromethyl)benzyl)quinolin-6-yl)(1-methyl-1H-1,2,3-triazol-5-yl)(1-methyl-1H-imidazol-5-yl)methanol], for which, in assay [1], the Kd is 1.2 nM. Further, in assay [2], the IC50 was below 2 nM and the inhibition at 6 µM was found to be 97%.

For the molecule `COc1nc2ccc(C(O)(c3cncn3C)c3cnnn3C)cc2c(Cl)c1Cc1ccc(C(F)(F)F)cc1` (single isomer, unassigned) [Example 89c, (4-Chloro-2-methoxy-3-(4-(trifluoromethyl)benzyl)quinolin-6-yl)(1-methyl-1H-1,2,3-triazol-5-yl)(1-methyl-1H-imidazol-5-yl)methanol], the Kd in assay [1] is 0.26 nM. Also, in assay [2], the “RORγt … % inhibition @ 6 µM” value is 97% and the IC50 was below 2 nM.

For `COc1nc2ccc(C(O)(c3sc(C)nc3C)c3cnnn3C)cc2cc1Cc1ccc(C(F)(F)F)cc1` (single isomer, unassigned) [Example 92b, (2,4-Dimethylthiazol-5-yl)(2-methoxy-3-(4-(trifluoromethyl)benzyl)quinolin-6-yl)(1-methyl-1H-1,2,3-triazol-5-yl)methanol], the Kd in assay [1] stood at 2000 nM. Besides, in assay [2], the IC50 came out at 2800 nM and the inhibition at 6 µM is 79%.

As to `COc1nc2ccc(C(O)(c3sc(C)nc3C)c3cnnn3C)cc2cc1Cc1ccc(C(F)(F)F)cc1` (single isomer, unassigned) [Example 92c, (2,4-Dimethylthiazol-5-yl)(2-methoxy-3-(4-(trifluoromethyl)benzyl)quinolin-6-yl)(1-methyl-1H-1,2,3-triazol-5-yl)methanol], the Kd in assay [1] was 19 nM. In assay [2] (6 µM), the “RORγt … % inhibition @ 6 µM” value is 96%. In assay [2], this molecule registered an IC50 of 30 nM.

Consider `COc1c(Cc2ccccc2)c(C(F)(F)F)nc2ccc(C(O)(c3ccccn3)c3cncn3C)cc12` (single isomer, unassigned) [Example 98b, (3-Benzyl-4-methoxy-2-(trifluoromethyl)quinolin-6-yl)(1-methyl-1H-imidazol-5-yl)(pyridin-2-yl)methanol], for which the Kd in assay [1] stood at 2200 nM. Also, the “RORγt … % inhibition @ 6 µM” value in assay [2] (6 µM) is listed as 74%. The molecule further gave an IC50 in assay [2] of around 5000 nM.

Consider `COc1c(Cc2ccccc2)c(C(F)(F)F)nc2ccc(C(O)(c3ccccn3)c3cncn3C)cc12` (single isomer, unassigned) [Example 98c, (3-Benzyl-4-methoxy-2-(trifluoromethyl)quinolin-6-yl)(1-methyl-1H-imidazol-5-yl)(pyridin-2-yl)methanol], for which the Kd in assay [1] came to 380 nM. Moreover, the “RORγt … % inhibition @ 6 µM” value in assay [2] (6 µM) was 96%. This molecule showed an IC50 in assay [2] of 420 nM.

As to `Cn1cncc1C(O)(c1ccc2nc(C(F)(F)F)c(Cc3ccccc3)c(C#N)c2c1)c1ccccn1` (single isomer, unassigned) [Example 99b, 3-Benzyl-6-(hydroxy(1-methyl-1H-imidazol-5-yl)(pyridin-2-yl)methyl)-2-(trifluoromethyl)quinoline-4-carbonitrile], the Kd in assay [1] was 810 nM. For the same molecule, in assay [2], the IC50 is around 2000 nM and the inhibition at 6 µM stood at 86%.
